# Test results reported in patent US20120302609A1, “Pyrazolines for the Modulation of PKM2” (Dynamix Pharmaceuticals LTD., priority 2011, published 2012).
# Columns and labels:
# [1] = test system: H1299 (Non-small cell lung carcinoma cell line); assay: Cell proliferation index assay, Assay Protocol II (Fluofarma, flow cytometry); assay type: cell-based; settings: Homo sapiens, NCI-H1299
# Protocol: In a second assay to determine the inhibition of cell proliferation by a test compound, cell proliferation of the cell line of interest was measured by a cell proliferation index assay using Fluofarma (www.fluofarma.com) based technology. This assay is based on the dilution rate of a fluorescent membrane marker, which is a direct function of the number of cell divisions. Briefly, the assay is performed by loading the cells with a non-toxic fluorescent phospholipid analog before the seeding. […] Flow cytometry analysis of the fluorescent probe is performed after the loading of the cells both prior to, as well as after treatment with various concentrations of the test compound. The dilution rate of the fluorescent probe at the single cell level is directly correlated to the number of cell divisions.
# PKM2, human recombinant = biological target: T1, PKM2, human recombinant (Homo sapiens, UniProt P14618); assay: PKM2 enzymatic activity assay (Kinase-Glo Plus luminescence); assay type: biochemical; settings: for AC50: 0.1 nM PKM2, 0.1 mM ADP, 0.5 mM PEP, 1 hour, room temperature, read-out: AC50 group; for Emax: 1 h, maximum percent activity, luminescence without compound = 0% activity, read-out: Max activity Group;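 on Max activity Group: percent increase over no-compound signal after subtracting the no-PKM2 background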
# T1 construct: purchased BPS 50295
# T1 sequence (P14618 whole entry): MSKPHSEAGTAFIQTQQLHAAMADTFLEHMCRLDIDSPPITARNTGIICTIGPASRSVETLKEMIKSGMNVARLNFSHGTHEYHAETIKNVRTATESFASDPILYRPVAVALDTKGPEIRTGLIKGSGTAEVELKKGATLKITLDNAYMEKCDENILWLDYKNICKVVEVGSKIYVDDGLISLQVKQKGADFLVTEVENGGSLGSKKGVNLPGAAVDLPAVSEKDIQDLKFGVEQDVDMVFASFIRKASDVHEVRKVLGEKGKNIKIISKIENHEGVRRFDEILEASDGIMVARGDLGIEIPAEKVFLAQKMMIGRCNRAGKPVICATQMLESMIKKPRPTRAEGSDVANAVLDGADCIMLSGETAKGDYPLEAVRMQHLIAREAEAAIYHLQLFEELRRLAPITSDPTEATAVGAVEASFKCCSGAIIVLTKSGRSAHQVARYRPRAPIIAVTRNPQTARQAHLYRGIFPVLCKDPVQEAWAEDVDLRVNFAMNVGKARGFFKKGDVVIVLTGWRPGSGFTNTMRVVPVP
# Protocol: PKM2 performs the following enzymatic reaction, where the PKM2 substrates, PEP (phosphoenolpyruvate) and ADP, are converted to pyruvate and ATP as follows:
# All of the enzymatic reactions were conducted in duplicates at room temperature for 1 hour in a 50 μL mixture containing: • PKM2 assay buffer (50 mM Imidazole, pH 7.2; 7 mM MgCl2; 50 mM KCl; 0.01% Tween; • and 0.05% BSA), 0.1 mM ADP, 0.5 mM PEP, 0.1 nM PKM2 enzyme (PKM2, human recombinant (BPS catalog number 50295)) and the indicated test compound. Fructose 1,6 biphosphat e, (FBP (Sigma)) was used as a positive control for activation at concentration of 0.5 mM. After enzymatic reactions, 50 μL of Kinase-Glo® Plus reagent (Promega kit) was added to each well and luminescence was measured using a BioTek Synergy™ 2 microplate reader.
# PKM2 activity assays were performed in duplicates at each concentration. The luminescence data were analyzed using the computer software, GraphPad PRISM®. In the absence of the compound, the luminescence was defined as 0% activity. The percent activity in the presence of each compound was calculated according to the following equation:
# % Activity=[(L−Lb)/(Lt−Lb)−1]×100%
# where L=the luminescence in the presence of the test compound, Lb=the luminescence in the absence of PKM2, and Lt=the luminescence intensity in the absence of the test compound. The % activity values versus a series of compound concentrations were plotted using non-linear regression analysis of Sigmoidal dose-response curve generated with the equation Y=B+(T−B)/1+10^((LogEC50-X)×Hill Slope), where Y=percent activity, B=minimum percent activity, T=maximum percent activity, X=logarithm of compound and Hill Slope=slope factor or Hill coefficient. The AC50 values, shown in Table 2 were determined for the indicated test compounds as the concentration causing a half-maximal percent activity.
# [2] = test system: H1299 Human Non-Small Cell Lung Carcinoma; assay: H1299 human non-small cell lung carcinoma nude mouse xenograft model, tumor growth delay; assay type: in vivo, mice; settings: for MTV (n) Day 28: median tumor volume of animals not at endpoint (n in brackets)
# Protocol: (§1) The animals were fed ad libitum water (reverse osmosis, 1 ppm Cl) and NIH 31 Modified and Irradiated Lab Diet® consisting of 18.0% crude protein, 5.0% crude fat, and 5.0% crude fiber. The mice were housed on irradiated Enrich-o′ Cobs™ Laboratory Animal Bedding in static microisolators on a 12-hour light cycle at 20-22° C. (68-72° F.) and 40-60% humidity.
# H1299 (NCI-H1299) NSCLC cells were obtained from the American Type Culture Collection, which reports the cell line to have originated from a lymph node metastasis and to lack p53 expression. The cell line was maintained as exponentially growing cultures in RPMI-1640 medium supplemented with 10% fetal bovine serum, 2 mM glutamine, 100 units/mL penicillin G sodium, 100 μg/mL streptomycin sulfate, 25 μg/mL gentamicin, 10 mM HEPES, and 0.075% sodium bicarbonate. The tumor cells were cultured in tissue culture flasks in a humidified incubator at 37° C., in an atmosphere of 5% CO2 and 95% air.
# H1299 tumor cells were harvested during log phase growth and suspended in cold PBS. Each nude mouse was inoculated subcutaneously in the right flank with 0.2 mL of the cell suspension (1×10^7 cells). The tumors were periodically calipered in two dimensions to monitor size as the mean volume approached the desired 90-130 mm^3 range. Tumor size was calculated by the following formula:
# where w=width and l=length, in mm, of the tumor. Tumor weight may be estimated with the assumption that 1 mg is equivalent to 1 mm^3 of tumor volume.
# Compound 13A (MW 467.51, code-named XT26) was provided as a powder stored at −20° C., and protected from light during storage and handling. Dosing suspensions, in 0.5% carboxymethyl cellulose and 1% Tween® 80 in deionized water (Vehicle), were prepared fresh for each dose, and kept at 4° C. post formulation. Gemcitabine (Gemzar®, Lilly, 38 mg/mL, Lot # A866884A) was stored at room temperature. A fresh 12 mg/mL gemcitabine dosing solution was prepared on each treatment day by diluting an aliquot of the stock solution with saline.
# (§2) Dosing began on D1 in four groups of mice (n=12/group in Groups 1, 3, and 4; n=6 in Group 2). XT26 and its vehicle were administered intraperitoneally (i.p.) twice daily for 28 days (b.i.d.×28), starting with the p.m. dose on D1 and ending with the a.m. dose on D29. Gemcitabine was administered i.p. once daily at three-day intervals for four doses (q3d×4). In all groups, the dosing volume of 10 ml/kg (0.2 ml/20 g mouse) was scaled to the weight of each individual animal, as measured twice weekly.
# Group 1 mice received the XT26 vehicle b.i.d.×28, and served as the controls for the study. Group 2 received gemcitabine at 120 mg/kg. Group 3 was to receive XT26 at 100 mg/kg b.i.d.×28; on D21, four mice (Animals 1, 3, 4, and 5) erroneously received 200 mg/kg XT26 for their a.m. dose. […] Group 4 dosing at 200 mg/kg resumed on D17 on a qd (once daily)×13 dosing schedule. Because of a scheduling error, the D19 dose for Group 4 mice was omitted; qd dosing occurred on Days 17, 18, and 20-28.
# Tumors were calipered twice weekly for the duration of the study, and each animal was euthanized when its neoplasm reached the predetermined endpoint volume (1200 mm^3) or at the end of the study, whichever came first. Animals that exited the study for tumor growth were documented as euthanized for tumor progression (TP), with the date of euthanasia. The time to endpoint (TTE) for each mouse was calculated by the following equation: […]
# where TTE is expressed in days, endpoint volume is expressed in mm^3, b is the intercept, and m is the slope of the line obtained by linear regression of a log-transformed tumor growth data set.
# [3] = H1299 nude mouse xenograft study, toxicity (body weight, deaths, organ weights); assay type: in vivo, mice; settings: Gemcitabine 120 mg/kg ip q3d × 4
# Protocol: as §1, §2
# Group 1 mice received the XT26 vehicle b.i.d.×28, and served as the controls for the study. Group 2 received gemcitabine at 120 mg/kg. Group 3 was to receive XT26 at 100 mg/kg b.i.d.×28; on D21, four mice (Animals 1, 3, 4, and 5) erroneously received 200 mg/kg XT26 for their a.m. dose. Group 4 was to receive XT26 at 200 mg/kg b.i.d.×28, but dosing stopped on D9 (b.i.d.×8) because of toxicity. Group 4 dosing at 200 mg/kg resumed on D17 on a qd (once daily)×13 dosing schedule. Because of a scheduling error, the D19 dose for Group 4 mice was omitted; qd dosing occurred on Days 17, 18, and 20-28.
# Animals were weighed daily on D1-5, then twice weekly until the completion of the study. The mice were observed frequently for overt signs of any adverse, treatment-related side effects.
# On D10, both kidneys and the liver were harvested from each euthanized Group 4 animal. Each organ was weighed separately, fixed overnight in 10% neutral buffered formalin, and transferred to 70% ethanol.
# 786-O (kidney) = assay: Cell proliferation assay (CellTiter-Glo Luminescent); assay type: cell-based; settings: Homo sapiens, 786-0, 1 mM glucose, 96 hr
# H1299 (lung) = assay: as above; assay type: cell-based, human; settings: Homo sapiens, NCI-H1299, 1 mM glucose, 96 hr
# Protocol: 1. Cells were grown according to the ATCC conditions. 2. Cell feeding (passaging) was timed such that the cells were in exponential growth phase at the time of the assay.
# 3. On day 1, H1299 cells were counted. Cell numbers were adjusted to the desired cell concentration in Media 1: RPMI 1640 Invitrogen 11879020 (that contained no glucose or pyruvate) with 10% FBS, and 1 mM D-Glucose (4 μl of 2.5 M D-glucose G8769 was added in preparing 10 ml RPMI media with 1 mM glucose). A 200 μl of H1299 cell suspension was added to appropriate wells in the 96-well plates, and incubated at 37° C. in the CO2 cell incubator under normal growing conditions for overnight. 4. On day 2, a 100 mM stock concentration of test compounds in 100% DMSO was prepared and serially diluted with 100% DMSO to 33.33 mM, 11.11 mM, and 3.7 mM. A 1:1000 dilution was made to each concentration in media 1 (yielding 0.1% final DMSO concentration). The media was aspirated completely from the cell plate. Each 100 μl of the following solutions (100 μM, 33.33 μM, 11.11 μM, and 3.7 μM) was added to the cells. DMSO in a final concentration of 0.1%, and media without DMSO, were added to the cells and used as a negative control. Empty wells around the experimental wells were filled with PBS. The plate was sealed with parafilm to reduce evaporation. 5. The plate was incubated under normal conditions (5% CO2, and 95% air), for 96 hours at 37° C. 6. On day 6 (after 96 hr incubation), the plate was equilibrated to room temperature for approximately 30 minutes. A 100 μl of CellTiter-Glo Reagent was added in each well of the plate. Contents were mixed for 2 minutes on an orbital shaker to induce cell lysis. The plate was incubated at room temperature for 10 minutes to stabilize luminescent signal. Luminescence was recorded with Flexstation 3.
# Unless noted otherwise, proliferation of control or compound treated H1299 cells was measured using CellTiter-Glo Luminescent assay following 96 hr incubation of the cells with and without test compounds. The AC50 values, shown in Table 3, were coded according to follows: A: <3 μM; B: 3-10 μM; C: 10-20 μM; or D: >20 μM.
# [4] = Gemcitabine 120 mg/kg ip q3d × 4
# [5] = Group 1 vs 2: Gemcitabine ip q3d × 4, 120 mg/kg
compound,measurement,setting,value
"COc1ccc(C2CC(c3ccc(NS(=O)(=O)c4c(F)cccc4F)cc3)=NN2C(C)=O)cc1 (stereo not shown) [Compound 61A, N-(4-(1-acetyl-5-(4-methoxyphenyl)-4,5-dihydro-1H-pyrazol-3-yl)phenyl)-2,6-difluorobenzenesulfonamide]",IC50,[1],< 40 µM
"COc1ccc(C2CC(c3ccc(NS(=O)(=O)c4ccc(F)cc4)cc3)=NN2C(C)=O)cc1 (racemic) [Compound 6A, N-(4-(1-acetyl-5-(4-methoxyphenyl)-4,5-dihydro-1H-pyrazol-3-yl)phenyl)-4-fluorobenzenesulfonamide]",AC50,"PKM2, human recombinant",≤ 1 µM
same,Emax,"PKM2, human recombinant",130 to 200%
same,IC50,[1],< 40 µM
"Nc1ccn([C@@H]2O[C@H](CO)[C@@H](O)C2(F)F)c(=O)n1 [Gemcitabine, gemcitabine, reference compound]",% TGD,[2]; [4],50%
same,Regressions CR,[2]; [4],0
same,Regressions PR,[2]; [4],0
same,Regressions TFS,[2]; [4],0
same,Median TTE,"[2]; Gemcitabine 120 mg/kg ip q3d × 4, endpoint 1200 mm^3, 28-day study",28.0 days
same,MTV (n) Day 28,[2]; [4],600 (5) mm^3
same,MTV (n) Day 28,"[2]; Gemcitabine 120 mg/kg ip q3d × 4, listed as gemcitabine",600 mm^3
same,T − C,"[2]; Gemcitabine 120 mg/kg ip q3d × 4, vs Group 1 vehicle",9.3 days
same,Median survival,"[2]; Gemcitabine ip q3d × 4, 120 mg/kg (Column B = treated group)",Undefined
same,Are the survival curves sig different?,[2]; [5],Yes
same,Hazard Ratio,[2]; [5],11.48
same,response of tumor model to therapy,[2]; standard 120 mg/kg gemcitabine therapy,responded moderately well
same,Deaths NTR,[3]; non-treatment-related deaths,0
same,Deaths TR,[3]; treatment-related deaths,0
"COc1ccc(C2CC(c3ccc(NS(=O)(=O)c4ccc(C(F)(F)F)cc4)cc3)=NN2C(C)=O)cc1 (stereo not shown) [Compound 21A, N-(4-(1-Acetyl-5-(4-methoxyphenyl)-4,5-dihydro-1H-pyrazol-3-yl)phenyl)-4-(trifluoromethyl)benzenesulfonamide]",AC50,"PKM2, human recombinant",≤ 1 µM
same,Emax,"PKM2, human recombinant",130 to 200%
same,AC50,786-O (kidney),3 to 10 µM
same,AC50,H1299 (lung),10 to 20 µM
"CC(=O)N1N=C(c2ccc(NS(=O)(=O)c3ccc(F)cc3)cc2)CC1c1ccc(F)cc1 (single isomer, unassigned) [Compound 36A]",AC50,"PKM2, human recombinant",≤ 1 µM
same,AC50,786-O (kidney),3 to 10 µM
same,AC50,H1299 (lung),> 20 µM
